19 molecules from patent US8318769B2, “Substituted sulfonamide compounds” (Gruenethal GmbH, priority 2008, dated 2012) can be followed below.

Where a name gives a salt, the structure may show the parent alone.

The target in test [1] is T1, human bradykinin 1 receptor (B1R) (Homo sapiens, UniProt P46663).
T1 construct: expressed in transfected cells
T1 sequence (P46663 1-353): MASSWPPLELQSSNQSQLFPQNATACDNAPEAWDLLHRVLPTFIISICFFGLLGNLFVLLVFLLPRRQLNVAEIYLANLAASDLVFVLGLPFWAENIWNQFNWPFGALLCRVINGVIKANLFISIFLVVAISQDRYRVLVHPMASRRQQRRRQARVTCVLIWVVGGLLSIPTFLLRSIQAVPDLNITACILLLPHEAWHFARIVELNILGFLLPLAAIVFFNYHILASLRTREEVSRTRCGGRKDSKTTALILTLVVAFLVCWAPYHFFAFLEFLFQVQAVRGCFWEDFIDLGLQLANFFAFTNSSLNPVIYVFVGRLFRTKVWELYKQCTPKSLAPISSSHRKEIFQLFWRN
As to the kind of experiment: FLIPR Ca2+ assay, B1R antagonism, human. The format is cell-based. The settings on record: 10 μM test substance; CHO K1 cells with human B1R gene (hB1R cells); Lys-Des-Arg9-bradykinin at EC80; % inhibition compared with the maximum achievable inhibition; read-out: B1R antagonism, human [10 μM] % inhibition. A digest of the protocol:
(§1)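 CHO K1 cells stably expressing human or rat B1R, loaded with Fluo-4 and read in FLIPR (ex 488, em 540 nm, peak fluorescence). Test compound 10 μM preincubated 10-20 min, then EC80 agonist added (Lys-Des-Arg9-bradykinin for human, Des-Arg9-bradykinin for rat); % inhibition relative to maximum achievable inhibition.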

Test [2] deals with T2, bradykinin 1 receptor (B1R) of the rat (Rattus norvegicus, UniProt P97583).
T2 construct: expressed in transfected cells
T2 sequence (P97583 1-337): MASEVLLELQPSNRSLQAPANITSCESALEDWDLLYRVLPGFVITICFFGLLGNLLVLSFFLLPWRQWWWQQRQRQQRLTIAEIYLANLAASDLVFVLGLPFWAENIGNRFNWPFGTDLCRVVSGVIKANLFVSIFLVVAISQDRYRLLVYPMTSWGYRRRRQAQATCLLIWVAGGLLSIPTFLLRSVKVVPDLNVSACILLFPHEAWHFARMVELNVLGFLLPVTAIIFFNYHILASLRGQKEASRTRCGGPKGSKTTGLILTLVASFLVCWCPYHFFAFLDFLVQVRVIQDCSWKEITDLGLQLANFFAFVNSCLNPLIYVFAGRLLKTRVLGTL
As to the kind of experiment: FLIPR Ca2+ assay, B1R antagonism, rat. It is filed as cell-based. The settings on record: CHO-K1, 10 μM test substance; CHO K1 cells with rat B1R gene (rB1R cells); Des-Arg9-bradykinin at EC80; % inhibition compared with the maximum achievable inhibition; read-out: B1R antagonism, rat [10 μM] % inhibition. In short, it runs like this: as §1

The inhibition is the drop in the measured response relative to a control, in per cent. For the molecule `COc1cc(C)c(S(=O)(=O)N2CCCCC2COCC(=O)N2CCC(OCCCN3CCN(C)CC3)(c3cccnc3)CC2)c(C)c1` (centres unmarked) [Example 33, 2-((1-(4-methoxy-2,6-dimethylphenylsulfonyl)piperidin-2-yl)methoxy)-1-(4-(3-(4-methylpiperazin-1-yl)propoxy)-4-(pyridin-3-yl)piperidin-1-yl)ethanone], the inhibition at 10 µM in test [1] turned out to be 98%; in test [2] it was 103%.
On to `COc1cc(C)c(S(=O)(=O)N(C)CCOCC(=O)N2CCC(OCCCN3CCN(C)CC3)(c3cccnc3)CC2)c(C)c1` [Example 34, 4-methoxy-N,2,6-trimethyl-N-(2-(2-(4-(3-(4-methylpiperazin-1-yl)propoxy)-4-(pyridin-3-yl)piperidin-1-yl)-2-oxoethoxy)ethyl)benzenesulfonamide], for which the figures for the inhibition at 10 µM in test [1] and in test [2] were 99% and 100%, respectively.
The like results for `CN1CCN(CCCOC2(c3cccnc3)CCN(C(=O)CC3CCCCN3S(=O)(=O)c3cccc(C(F)(F)F)c3)CC2)CC1` (centres unmarked) [Example 35, 1-(4-(3-(4-methylpiperazin-1-yl)propoxy)-4-(pyridin-3-yl)piperidin-1-yl)-2-(1-(3-(trifluoromethyl)phenylsulfonyl)piperidin-2-yl)ethanone] were, in that order, 21% and 97%.
In the same order, the values of `Cc1cc(S(=O)(=O)N2CCCCC2CCC(=O)N2CCC(OCCCN3CCN(C)CC3)(c3cccnc3)CC2)c(C)cc1Cl` (centres unmarked) [Example 36, 3-(1-(4-chloro-2,5-dimethylphenylsulfonyl)piperidin-2-yl)-1-(4-(3-(4-methylpiperazin-1-yl)propoxy)-4-(pyridin-3-yl)piperidin-1-yl)propan-1-one] are 85% and 93%.
In the same order, the values of `CN1CCN(CCCOC2(c3cccnc3)CCN(C(=O)COCC3CCc4ccccc4N3S(=O)(=O)c3ccc(Cl)c(Cl)c3)CC2)CC1` (centres unmarked) [Example 37, 2-((1-(3,4-dichlorophenylsulfonyl)-1,2,3,4-tetrahydroquinolin-2-yl)methoxy)-1-(4-(3-(4-methylpiperazin-1-yl)propoxy)-4-(pyridin-3-yl)piperidin-1-yl)ethanone] are 77% and 99%.
On to `CN1CCN(CCOC2(c3cccnc3)CCN(C(=O)COCC3CCc4ccccc4N3S(=O)(=O)c3ccc(Cl)c(Cl)c3)CC2)CC1` (centres unmarked) [Example 38, 2-((1-(3,4-dichlorophenylsulfonyl)-1,2,3,4-tetrahydroquinolin-2-yl)methoxy)-1-(4-(2-(4-methylpiperazin-1-yl)ethoxy)-4-(pyridin-3-yl)piperidin-1-yl)ethanone], for which the inhibition at 10 µM turned out to be 74% in test [1] and 98% in test [2].
`CN1CCN(CCCOC2(c3cccnc3)CCN(C(=O)CC(NS(=O)(=O)c3ccc4ccccc4c3)c3ccccc3)CC2)CC1` (centres unmarked) [Example 39, N-(3-(4-(3-(4-methylpiperazin-1-yl)propoxy)-4-(pyridin-3-yl)piperidin-1-yl)-3-oxo-1-phenylpropyl)naphthalene-2-sulfonamide]: the inhibition at 10 µM in test [1] turned out to be 50%; in test [2], 98%.
The like results for `COc1cc(C)c(S(=O)(=O)N2CCCCC2COCC(=O)N2CCC(OCCCN3CCCC3)(c3cccnc3)CC2)c(C)c1` (centres unmarked) [Example 40, 2-((1-(4-methoxy-2,6-dimethylphenylsulfonyl)piperidin-2-yl)methoxy)-1-(4-(pyridin-3-yl)-4-(3-(pyrrolidin-1-yl)propoxy)piperidin-1-yl)ethanone] were, in that order, 99% and 102%.
In the same order, the values of `COc1cc(C)c(S(=O)(=O)N(C)CCOCC(=O)N2CCC(OCCCN3CCCC3)(c3cccnc3)CC2)c(C)c1` [Example 41, 4-methoxy-N,2,6-trimethyl-N-(2-(2-oxo-2-(4-(pyridin-3-yl)-4-(3-(pyrrolidin-1-yl)propoxy)piperidin-1-yl)ethoxy)ethyl)benzenesulfonamide] are 100% and 101%.
Turning to `O=C(CC1CCCCN1S(=O)(=O)c1cccc(C(F)(F)F)c1)N1CCC(OCCCN2CCCC2)(c2cccnc2)CC1` (centres unmarked) [Example 42, 1-(4-(pyridin-3-yl)-4-(3-(pyrrolidin-1-yl)propoxy)piperidin-1-yl)-2-(1-(3-(trifluoromethyl)phenylsulfonyl)piperidin-2-yl)ethanone], the inhibition at 10 µM in test [1] is 52%; in test [2], 48%.
The like results for `Cc1cc(S(=O)(=O)N2CCCCC2CCC(=O)N2CCC(OCCCN3CCCC3)(c3cccnc3)CC2)c(C)cc1Cl` (centres unmarked) [Example 43, 3-(1-(4-chloro-2,5-dimethylphenylsulfonyl)piperidin-2-yl)-1-(4-(pyridin-3-yl)-4-(3-(pyrrolidin-1-yl)propoxy)piperidin-1-yl)propan-1-one] were, in that order, 86% and 67%.
Take `O=C(CC(NS(=O)(=O)c1ccc2ccccc2c1)c1ccccc1)N1CCC(OCCCN2CCCC2)(c2cccnc2)CC1` (centres unmarked) [Example 44, N-(3-oxo-1-phenyl-3-(4-(pyridin-3-yl)-4-(3-(pyrrolidin-1-yl)propoxy)piperidin-1-yl)propyl)naphthalene-2-sulfonamide]: the inhibition at 10 µM was 95% in test [1] and 102% in test [2].
In the same order, the values of `O=C(COCC1CCc2ccccc2N1S(=O)(=O)c1ccc(Cl)c(Cl)c1)N1CCC(OCCCN2CCCC2)(c2cccnc2)CC1` (centres unmarked) [Example 45, 2-((1-(3,4-dichlorophenylsulfonyl)-1,2,3,4-tetrahydroquinolin-2-yl)methoxy)-1-(4-(pyridin-3-yl)-4-(3-(pyrrolidin-1-yl)propoxy)piperidin-1-yl)ethanone] are 76% and 103%.
With `COc1cc(C)c(S(=O)(=O)N2CCCC[C@H]2COCC(=O)N2CCC(OCCN3CCCC3)(c3cccnc3)CC2)c(C)c1` [Example 46, (S)-2-((1-(4-methoxy-2,6-dimethylphenylsulfonyl)piperidin-2-yl)methoxy)-1-(4-(pyridin-3-yl)-4-(2-(pyrrolidin-1-yl)ethoxy)piperidin-1-yl)ethanone hydrochloride], the inhibition at 10 µM in test [1] was determined as 100%; in test [2] it was 102%.
For `O=C(COC[C@@H]1CCCCN1S(=O)(=O)c1ccccc1C(F)(F)F)N1CCC(OCCN2CCCC2)(c2cccnc2)CC1` [Example 47, (S)-1-(4-(pyridin-3-yl)-4-(2-(pyrrolidin-1-yl)ethoxy)piperidin-1-yl)-2-((1-(2-(trifluoromethyl)phenylsulfonyl)piperidin-2-yl)methoxy)ethanone], the results for the inhibition at 10 µM in test [1] and in test [2] were 100% and 101%, respectively.
The like results for `Cc1cccc(Cl)c1S(=O)(=O)N1CCCC[C@H]1COCC(=O)N1CCC(OCCN2CCCC2)(c2cccnc2)CC1` [Example 48, (S)-2-((1-(2-chloro-6-methylphenylsulfonyl)piperidin-2-yl)methoxy)-1-(4-(pyridin-3-yl)-4-(2-(pyrrolidin-1-yl)ethoxy)piperidin-1-yl)ethanone] were, in that order, 99% and 105%.
In the same order, the values of `COc1cc(C)c(S(=O)(=O)N2CCCC[C@H]2COCC(=O)N2CCC(COCCN3CCCC3)(c3cccnc3)CC2)c(C)c1` [Example 49, (S)-2-((1-(4-methoxy-2,6-dimethylphenylsulfonyl)piperidin-2-yl)methoxy)-1-(4-(pyridin-3-yl)-4-((2-(pyrrolidin-1-yl)ethoxy)methyl)piperidin-1-yl)ethanone] are 97% and 104%.
Regarding `COc1cc(C)c(S(=O)(=O)N2CCCC[C@H]2COCC(=O)N2CCC(OCCN3CCCC3)(c3cccnc3)C2)c(C)c1` (stereo partly drawn) [Example 50, 2-(((S)-1-(4-methoxy-2,6-dimethylphenylsulfonyl)piperidin-2-yl)methoxy)-1-(3-(pyridin-3-yl)-3-(2-(pyrrolidin-1-yl)ethoxy)pyrrolidin-1-yl)ethanone], the inhibition at 10 µM in test [1] worked out at 100%; in test [2], 104%.
The like results for `COc1cc(C)c(S(=O)(=O)N2CCCC[C@H]2COCC(=O)N2CCC(OCCN3CCCC3)(c3cccc(F)c3)CC2)c(C)c1` [Example 51, (S)-1-(4-(3-fluorophenyl)-4-(2-(pyrrolidin-1-yl)ethoxy)piperidin-1-yl)-2-((1-(4-methoxy-2,6-dimethylphenylsulfonyl)piperidin-2-yl)methoxy)ethanone] were, in that order, 98% and 97%.
